In patent publication US6479519B1, “Substituted anilides” (Aventis Pharma Limited, priority 1997, dated 2002):

Compound	melting point
COc1cc(CC(=O)Nc2ccc([C@@H](CC(=O)O)NC(=O)c3ccc[n+]([O-])c3)cc2)ccc1NC(=O)Nc1ccccc1C [Example 11, (R)-3-[(1-oxido-pyridine-3-carbonyl)amino]-3-(4-{3-methoxy-4-[3-(2-methylphenyl)ureido]-phenylacetylamino}phenyl)-propanoic acid]	190 °C (dec.)
COc1cc(CC(=O)Nc2ccc([C@@H](CC(=O)O)NC(=O)CCCC(=O)O)cc2)ccc1NC(=O)Nc1ccccc1C [Example 5(h), (R)-3-(4-carboxybutanoyl-amino)-3-(4-{3-methoxy-4-[3-(2-methylphenyl)ureido]phenylacetylamino}-phenyl)-propanoic acid]	220 to 222 °C
COc1cc(N(C(C)=O)c2ccc([C@@H](CC(=O)O)NC(=O)CN)cc2)ccc1NC(=O)Nc1ccccc1C [Example 10, (R)-3-[(2-amino-acetyl)amino]-3-(4-{3-methoxy-4-[3-(2-methylphenyl)ureido]phenyl-acetylamino}phenyl)propanoic acid]	105 to 108 °C (dec.)
